The source of these data is patent US20250163061A1 (Bala Therapeutics, Inc., priority 2021, published 2025).

SMILES strings stand for the structures.

One data set deals with recombinant MEN1 protein (Homo sapiens (Human), UniProt O00255). Nature of the data set: Primary fluorescence polarization assay of MEN1 activity inhibition (MEN1 / MLL4-43 peptide interaction). The format is binding. As to conditions: MEN1 10 nM, fluorescein-labeled MLL4-43 peptide 0.5 nM. The procedure: Compound activity was determined using recombinant MEN1 protein (Creativebiomart, Cat #MEN1-35H) and a custom fluorescein-labeled MLL4-43 peptide (Eton Bioscience Inc.). Interaction between MEN1 and MLL4-43 in the presence of compounds was determined by fluorescence polarization assay using a Microplate Reader ClarioStar Plus. The reaction was carried out in assay buffer (50 mM TRIS-HCl pH 7.4-7.6, 50 mM NaCl, 1 mM DTT, 0.1 mg/ml BSA). The compounds were dispensed on a 384 well Diamond Well Plate (Axigen, Cat #P-384-120SQ-C-S) using the Biomek FX liquid handling system at 100× solutions of compounds in DMSO. 2×MEN1 mix (final concentration of MEN1 10 nM) was prepared in Assay buffer and 10 μl of mixture per well was added into 384 w white Reaction plate with NBS (Corning, Cat #4513). 10 μl of Assay buffer w/o MEN1 was used for negative control. Plates were centrifuged for 1 min at 100 g. Next step the Compounds were added to Reaction plate using Biomek station via following steps: 3 μl of 100× compounds (in DMSO) were mixed thoroughly with 27 μl Assay Buffer, then 2 μl of this mixture was added to Reaction plate with 10 μl of MEN1 mix. Plates were centrifuged for 1 min at 100 g and incubated for 20 min at room temperature. Next 8 μL of MLL4-43 peptide per well was added to final concentration of MLL 0.5 nM. Plates were incubated for 1 hour at room temperature. Then fluorescence polarization was measured using Microplate Reader.
Chain of recombinant MEN1 protein (O00255 whole entry): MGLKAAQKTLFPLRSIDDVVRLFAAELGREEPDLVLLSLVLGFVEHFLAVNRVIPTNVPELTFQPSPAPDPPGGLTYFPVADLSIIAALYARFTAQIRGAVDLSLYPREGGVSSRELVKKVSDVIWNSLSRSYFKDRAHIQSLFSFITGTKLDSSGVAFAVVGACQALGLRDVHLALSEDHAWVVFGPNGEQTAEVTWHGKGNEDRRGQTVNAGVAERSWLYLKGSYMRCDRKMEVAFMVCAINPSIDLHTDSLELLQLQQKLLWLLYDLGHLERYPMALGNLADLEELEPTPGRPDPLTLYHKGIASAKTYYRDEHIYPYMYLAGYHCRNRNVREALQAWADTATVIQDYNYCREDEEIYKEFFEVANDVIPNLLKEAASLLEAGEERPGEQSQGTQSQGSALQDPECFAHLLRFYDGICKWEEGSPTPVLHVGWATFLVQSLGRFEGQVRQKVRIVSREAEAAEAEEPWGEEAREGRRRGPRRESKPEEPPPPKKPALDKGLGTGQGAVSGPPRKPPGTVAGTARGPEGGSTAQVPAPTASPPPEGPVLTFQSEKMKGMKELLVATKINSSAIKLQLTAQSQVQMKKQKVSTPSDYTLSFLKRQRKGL

Another data set relates to MV4-11. Kind of data set: MV4-11 cellular growth inhibition assay (CellTiter-Glo). The format is cell-based. As to conditions: Homo sapiens, 168 h, MV4-11 cells, 7 days of incubation. The gist of the method: (§1)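 HEK293 (500 cells/well, adhered overnight) and MV4-11 or MOLM-13 (2000 cells/well) were grown in DMEM or RPMI with 10% FBS at 37° C, 5% CO2. Compound was added with 0.2% final DMSO and re-added at day 3. After 7 days, viability was read as CellTiter-Glo luminescence.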

A short description of data set [1]: HEK293 cellular growth inhibition assay (CellTiter-Glo). The format is cell-based. As to conditions: human, HEK293 cells, 7 days of incubation. An outline of the steps:
as §1
A general note: Cellular ATP, detected with luciferase, serves as a proxy for viable cell number.

A further data set concerns MOLM-13. Kind of data set: MOLM-13 cellular growth inhibition assay (CellTiter-Glo). As to conditions: Homo sapiens, 168 h, MOLM-13 cells, 7 days of incubation. The format is cell-based. An outline of the steps:
as §1

For `Cc1c(CN2CCC3(CC2)CN(c2ncnc4ccc(CC(F)(F)F)cc24)C3)ccc2c1cc(C#N)n2C[C@@H]1CCC(=O)N[C@H]1c1ccccc1` [Compound 100, 4-Methyl-1-{[(2R,3S)-6-oxo-2-phenylpiperidin-3-yl]methyl}-5-({2-[6-(2,2,2-trifluoroethyl)quinazolin-4-yl]-2,7-diazaspiro[3.5]non-7-yl}methyl)-1H-indole-2-carbonitrile], at recombinant MEN1 protein, the EC50 was in the range of 75 to 500 nM.
Same read-out and setting: as for `Cc1c(CN2CCC3(CC2)CN(c2ncnc4ccc(CC(F)(F)F)cc24)C3)ccc2c1cc(C#N)n2CC1CN(C)C(=O)CN1` (centres unmarked) [Compound 46, 4-methyl-1-[(4-methyl-5-oxo-piperazin-2-yl)methyl]-5-[[2-[6-(2,2,2-trifluoroethyl)quinazolin-4-yl]-2,7-diazaspiro[3.5]nonan-7-yl]methyl]indole-2-carbonitrile], the figure is 1000 to 5000 nM.
In the case of `CCS(=O)(=O)N1CCCN(C(C)Cn2c(C#N)cc3c(C)c(CN4CCC5(CC4)CN(c4ncnc6ccc(CC(F)(F)F)cc46)C5)ccc32)CC1` (centres unmarked) [Compound 53, 1-[2-(4-Ethylsulfonyl-1,4-diazepan-1-yl)propyl]-4-methyl-5-[[2-[6-(2,2,2-trifluoroethyl)quinazolin-4-yl]-2,7-diazaspiro[3.5]nonan-7-yl]methyl]indole-2-carbonitrile], the CC50 was at most 100 nM in the data set with MV4-11 and 100 to 500 nM in the data set with MOLM-13. This molecule had a half-maximal cytotoxic concentration (CC50) at 7 days in data set [1] of 5000 to 10000 nM. The 50% effective concentration (EC50) at recombinant MEN1 protein was at most 75 nM.
As for `Cc1c(CN2CCC3(CC2)CN(c2ncnc4ccc(CC(F)(F)F)cc24)C3)ccc2c1cc(C#N)n2CC1CN(S(C)(=O)=O)CCO1` (centres unmarked) [Compound 9], at recombinant MEN1 protein, the concentration giving a half-maximal response (EC50) was 75 to 500 nM.
On to `Cc1c(CN2CCC3(CC2)CN(c2cnnc4ccc(CC(F)(F)F)cc24)C3)ccc2c1cc(C#N)n2CC(C)N1CCN(S(C)(=O)=O)CC1` (centres unmarked) [Compound 80, 4-Methyl-1-[2-(4-methylsulfonylpiperazin-1-yl)propyl]-5-[[2-[6-(2,2,2-trifluoroethyl)cinnolin-4-yl]-2,7-diazaspiro[3.5]nonan-7-yl]methyl]indole-2-carbonitrile], for which the CC50 in the data set on MV4-11 was 100 to 500 nM; in the data set with MOLM-13, 1000 to 5000 nM. In data set [1], this molecule gave a CC50 at 7 days of 5000 to 10000 nM. Besides, the concentration for a half-maximal effect (EC50) on recombinant MEN1 protein is at most 75 nM.
For `CCS(=O)(=O)N[C@H]1CC[C@H](Cn2c(C#N)cc3c(C)c(CN4CCC5(CC4)CN(c4ncnc6ccc(CC(F)(F)F)cc46)C5)ccc32)CC1` [Compound 41], the EC50 on recombinant MEN1 protein lay within 75 to 500 nM.
In the case of `Cc1c(CN2CCC3(CC2)CN(c2ncnc4ccc(CC(F)(F)F)cc24)C3)ccc2c1cc(C#N)n2CC1CNC(=O)N1` (centres unmarked) [Compound 6, 4-Methyl-1-[(2-oxoimidazolidin-4-yl)methyl]-5-({2-[6-(2,2,2-trifluoroethyl)quinazolin-4-yl]-2,7-diazaspiro[3.5]non-7-yl}methyl)-1H-indole-2-carbonitrile], at recombinant MEN1 protein, the concentration giving a half-maximal response (EC50) was 1000 to 5000 nM.
The same measure, in the same setting: under `Cc1c(CN2CCC3(CC2)CN(c2ncnc4ccc(CC(F)(F)F)cc24)C3)ccc2c1cc(C#N)n2CC1CN(CC(C)C)C(=O)CO1` (centres unmarked) [Compound 31, 1-[(4-Isobutyl-5-oxomorpholin-2-yl)methyl]-4-methyl-5-({2-[6-(2,2,2-trifluoroethyl)quinazolin-4-yl]-2,7-diazaspiro[3.5]non-7-yl}methyl)-1H-indole-2-carbonitrile] stands 75 to 500 nM.

As usually defined, the EC50 is the concentration giving half of the maximal effect. Broadly, the CC50 is the concentration at which the toxic effect on the cells reaches its halfway point.
